Test results taken from PMC8236048, “Pharmaceutical design of a delivery system for the bacteriocin lacticin 3147” (Drug Delivery and Translational Research, 2021).

What was measured:
pepsin = biological target: T1, pepsin (Sus scrofa, UniProt P00791); assay: Enzyme degradation of lacticin 3147 by pepsin (activity, MALDI-TOF, RP-HPLC); type: in vitro ADME; conditions: 3 h; for intact peptide after incubation with pepsin (MALDI-TOF): 25 mg/ml pepsin, 13.38 µg/ml Ltnα, 11.86 µg/ml Ltnβ, pH 2.29, n = 3; for concentration with versus without pepsin (RP-HPLC): 60 mg/ml pepsin, 62.5 µg/ml peptide, 37 °C, RP-HPLC UV 214 nm
T1 construct: purchased Sigma-Aldrich Ireland Ltd
T1 sequence (P00791 60-385): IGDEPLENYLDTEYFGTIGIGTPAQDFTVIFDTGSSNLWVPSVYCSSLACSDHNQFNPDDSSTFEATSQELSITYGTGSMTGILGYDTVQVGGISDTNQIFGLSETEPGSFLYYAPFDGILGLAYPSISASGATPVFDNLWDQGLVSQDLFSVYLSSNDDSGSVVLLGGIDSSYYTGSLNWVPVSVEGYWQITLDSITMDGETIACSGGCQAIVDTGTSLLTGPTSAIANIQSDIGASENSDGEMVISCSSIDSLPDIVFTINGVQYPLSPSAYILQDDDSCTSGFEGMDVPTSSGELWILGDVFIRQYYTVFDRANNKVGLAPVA
Procedure: (§1) Lacticin 3147 production was confirmed by matrix-assisted laser desorption ionization-time of flight (MALDI-TOF) mass spectrometry using sinapinic acid as the matrix. About 0.7 μl of the matrix solution (sinapinic acid, 4 mg/ml in 50% acetone/50% methanol) was added to the target plate and left to evaporate (30 s) at ambient conditions. Individual peptides (Ltnα or Ltnβ) were resuspended in 70% IPA and mixed at a 1:1 volume ratio with a 10-mg/ml stock solution of sinapinic acid in 60% ACN with 0.1% TFA. About 0.3 μl of this peptide-matrix solution was then added to the matrix layer previously applied to the plate and evaporated at ambient conditions. The plate was inserted into a MALDI-TOF Ultraflex mass spectrometer (Bruker) and analysed using reflectron positive 700–3500 Da mode. 100 shots were fired at 88% intensity. This method was also used for the analyses of samples from the enzyme degradation studies.
All lacticin 3147 samples were filtered through a 0.2-µm PES filter before analysis by RP-HPLC using an Agilent 1200 Infinity Series HPLC (Agilent Technologies, USA). The HPLC separations were carried out on an Aeris 3.6 µm Peptide 100 Å 250 × 4.6 mm, liquid chromatography column with a flow rate of 0.8 ml/min, and with 0.1% trifluoroacetic acid (TFA) in water as aqueous phase-A and 0.1% TFA in acetonitrile (ACN) as organic phase-B. The total run time was 51 min. The mobile phase started with 30:70 A:B for 3 min and change linearly to 35:65 A:B over 30 min. The organic phase was then adjusted to 100% within 1 min and continued to flow for 5 min. After this, the mobile phase returned to the initial ratio to stabilize the chromatographic system. The detector was set at 214 nm. The peak area (mAU) was plotted against the concentration (1.56–500 µg/ml) to make a calibration curve. The coefficients of determination (R^2 values) were 0.9963 and 0.9983 for Ltnα and Ltnβ respectively. This method was subsequently used for quantitative analysis of Ltnα and Ltnβ.
(§2) Trypsin and α-chymotrypsin stock solutions (50 mg/ml) were resuspended in water. Pepsin (50 mg/ml) was resuspended in 0.02 M HCL. About 1 mg/ml individual solutions of Ltnα and Ltnβ in 70% IPA were filtered and diluted (1 in 20) in sterile PBS to give a final peptide concentration of 50 µg/ml. After this, 5.3 µl Ltnα and 4.6 µl Ltnβ were added to the same well of a 96-well plate. The pH of the lacticin 3147-pepsin solution was 2.29. Control wells consisting of Ltnα and Ltnβ together, Ltnα alone, and Ltnβ alone with no enzyme were included. The 96-well plate was incubated for 3 h at 37 °C to allow the enzyme to act. After incubation, the wells were filled to 50 μl with PBS and 150 μl of diluted bacterial cell culture (L. monocytogenes at an OD of 0.1) was added to each well. The final peptide concentration of 400 nM (1.31 µg/ml Ltnα, 1.14 µg/ml Ltnβ) was obtained when the wells were filled to 200 µl. Blanks were set up in triplicate with media only and PBS only. The three control wells were also set up with bacterial culture and each enzyme only. […] The effect of the proteases pepsin, α-chymotrypsin, and trypsin on the lacticin 3147 peptides was determined by MALDI-TOF mass spectrometry. […] After 3 h, 1 µl was removed from each sample and it was analysed by MALDI-TOF mass spectrometry. […]
Pepsin’s effect on lacticin 3147 was also investigated by RP-HPLC. […] After incubation, aliquots were taken, filtered, and analysed by RP-HPLC to determine if pepsin degrades Ltnα or Ltnβ to any extent.

trypsin = assay: Enzyme degradation of lacticin 3147 by trypsin (activity, MALDI-TOF); type: in vitro ADME; conditions: 3 h incubation, n = 3
Procedure: as §1
Trypsin and α-chymotrypsin stock solutions (50 mg/ml) were resuspended in water. Pepsin (50 mg/ml) was resuspended in 0.02 M HCL. […] The effect of the proteases pepsin, α-chymotrypsin, and trypsin on the lacticin 3147 peptides was determined by MALDI-TOF mass spectrometry. […] After 3 h, 1 µl was removed from each sample and it was analysed by MALDI-TOF mass spectrometry. […]

α-chymotrypsin = biological target: T2, α-chymotrypsin (Bos taurus, UniProt P00766); assay: Enzyme degradation of lacticin 3147 by α-chymotrypsin (activity, MALDI-TOF); type: in vitro ADME; conditions: 3 h incubation, n = 3
T2 construct: purchased Sigma-Aldrich Ireland Ltd
Procedure: as §1
as §2, with “µl.” for “µl. Blanks were set up in triplicate with media only and PBS only. The three control wells were also set up with bacterial culture and each enzyme only.”

C. difficile = conditions: treatment failures of C. difficile infection after use of antibiotics; cited from earlier work
Source text: Approximately 223,900 C. difficile infections and 12,800 resulting deaths were reported in the USA in 2017 [17]. Treatment failures and recurrences of infection after the use of antibiotics are increasingly common, with a 2–38% failure rate for vancomycin and 8–50% for metronidazole. A more virulent strain of C. d ...

Row | Structure (SMILES) | intact peptide after incubation with pepsin (MALDI-TOF) (pepsin) | concentration with versus without pepsin (RP-HPLC) (pepsin) | intact peptide after incubation with trypsin (MALDI-TOF) (trypsin) | intact peptide after incubation with α-chymotrypsin (MALDI-TOF) (α-chymotrypsin) | failure rate (C. difficile)
1 | CC=C(NC(=O)C1CSCC(N)C(=O)N1)C(=O)N[C@@H](CC(N)=O)C(=O)NC(=CC)C(=O)N[C@@H](Cc1ccccc1)C(=O)N[C@H](C)C(=O)N[C@@H](CC(C)C)C(=O)NC1CSCC(C(=O)NC2C(=O)N[C@@H](CC(C)C)C(=O)NC3C(=O)N[C@@H](Cc4c[nH]cn4)C(=O)N[C@@H](CCC(=O)O)C(=O)NC(CSC2C)C(=O)N[C@@H](CCSC)C(=O)N[C@@H](C)C(=O)N[C@@H](Cc2c[nH]c4ccccc24)C(=O)NC(C(=O)N[C@@H](CCCCN)C(=O)O)CSC3C)NC(=O)[C@H](Cc2c[nH]c3ccccc23)NC(=O)[C@H](C)NC(=O)CNC(=O)[C@H](CC(N)=O)NC(=O)[C@H](CC(N)=O)NC(=O)CNC(=O)[C@H](Cc2c[nH]c3ccccc23)NC(=O)[C@H](Cc2ccc(O)cc2)NC(=O)[C@H](CC(=O)O)NC1=O (stereo partly shown) [Ltnα] | Masses corresponding to Ltnα and Ltnβ can be seen | not significantly different | no masses corresponding to intact | no masses corresponding to intact | 
2 | CC=C(NC(=O)C(=O)CC)C(=O)N1CCC[C@H]1C(=O)N[C@@H](C)C(=O)NC(=CC)C(=O)N1CCC[C@H]1C(=O)N[C@@H](C)C(=O)N[C@H](C(=O)N[C@H](C)C(=O)N[C@H](C(=O)N[C@@H](CC(C)C)C(=O)N[C@H](C)C(=O)N[C@@H](C)C(=O)N[C@@H](Cc1ccc(O)cc1)C(=O)N[C@H](C(=O)NC1CSCC(C(=O)N2CCC[C@H]2C(=O)NC2C(=O)N[C@@H]([C@@H](C)O)C(=O)N[C@@H](CCCCN)C(=O)NC(C(=O)NC3C(=O)N[C@@H](CCCNC(=N)N)C(=O)N[C@@H](C)C(=O)NC(C(=O)O)CSC3C)CSC2C)NC(=O)[C@H]([C@@H](C)O)NC(=O)[C@H](CC(N)=O)NC(=O)[C@H]([C@@H](C)O)NC1=O)[C@@H](C)CC)[C@@H](C)CC)[C@@H](C)CC (stereo partly shown) [Ltnβ] | Masses corresponding to Ltnα and Ltnβ can be seen | not significantly different | no masses corresponding to intact | no masses corresponding to intact | 
3 | Cc1ncc([N+](=O)[O-])n1CCO [metronidazole] |  |  |  |  | 8–50%
4 | CN[C@H](CC(C)C)C(=O)N[C@H]1C(=O)N[C@@H](CC(N)=O)C(=O)N[C@H]2C(=O)N[C@H]3C(=O)N[C@H](C(=O)N[C@H](C(=O)O)c4cc(O)cc(O)c4-c4cc3ccc4O)[C@H](O)c3ccc(c(Cl)c3)Oc3cc2cc(c3O[C@@H]2O[C@H](CO)[C@@H](O)[C@H](O)[C@H]2O[C@H]2C[C@](C)(N)[C@H](O)[C@H](C)O2)Oc2ccc(cc2Cl)[C@H]1O [vancomycin] |  |  |  |  | 2–38%
